# From patent publication US5919785A, “Inhibitors of farnesyl-protein transferase” (Merck & Co., Inc., priority 1997, dated 1999)
# Where a name gives a salt, the structure may show the parent alone. Read-outs that look alike come from different tables or passages of the source.
# Biological target: T1, human FPTase (Homo sapiens, UniProt P49354+P49356)
# T1 construct: made in house
# Assay: In vitro inhibition of ras farnesyl transferase (human FPTase assay)
# Type: biochemical
# Experimental: Assays of farnesyl-protein transferase. […] Reactions were initiated with FPTase and stopped with 1 ml of 1.0 M HCL in ethanol. Precipitates were collected onto filter-mats using a TomTec Mach HI cell harvester, washed with 100% ethanol, dried and counted in an LKB β-plate counter. […] Purified compounds were dissolved in 100% dimethyl sulfoxide (DMSO) and were diluted 20-fold into the assay. Percentage inhibition is measured by the amount of incorporation of radioactivity in the presence of the test compound when compared to the amount of incorporation in the absence of the test compound. […] Human FPTase activity was assayed as described above with the exception that 0.1% (w/v) polyethylene glycol 20,000, 10 μM ZnCl2 and 100 nM Ras-CVIM were added to the reaction mixture. Reactions were performed for 30 min., stopped with 100 μl of 30% (v/v) trichloroacetic acid (TCA) in ethanol and processed as described above for the bovine enzyme.
"IC50 (human FPTase, [3H]-FPP, 100 nM Ras-CVIM, 30 min, read-out: IC50, inhibitory activity against human FPTase) [µM]",SMILES,IC50 [µM]
,"N#Cc1ccc(Cn2cncc2CN2CC(=O)N(c3ccccc3)CC2=O)cc1 [Example 4, 4-[1-(4-cyanobenzyl)-5-imidazolylmethyl]-1-phenylpiperazine-2,5-dione hydrochloride]",≤ 50
≤ 50,"N#Cc1ccc(Cn2cncc2CN2CC(=O)N(Cc3ccccc3)CC2=O)cc1 [Example 5, 4-benzyl-1-[1-(4-cyanobenzyl)-5-imidazolylmethyl]-piperazine-2,5-dione hydrochloride]",
